In patent US20230095495A1, “SKIN CONDITIONING COMPOSITION WITH HIGH CONCENTRATION OF UREA TO BOOST THE SKINCARE ACTIVES” (L'OREAL, priority 2021, published 2023):

What was measured:
[1] = acute oral toxicity, mutagenicity, skin irritation, skin sensitization, phototoxicity; cited from earlier work
stratum corneum = assay: In vitro stratum corneum comparison of ΔT by differential scanning calorimetry (DSC); details: variation of INV #1 applied first without rinsing, then hydroxy-acid based peel moisturizer; compared to peel moisturizer alone
Procedure: In studies, the effect of urea at various concentrations and using hydroxyethyl urea (HEU) was according to INV #1 (40% urea, 5% glycine, 0.7% triacetin, buffer) in which the amount and form of urea was varied. […] Studies were conducted with each of the tested compositions to evaluate effect of the compositions on the stratum corneum.
In Vitro Stratum Corneum Comparison of Δ T using differential scanning calorimetry (DSC) is used to characterize the stability of a protein or other biomolecule directly in its native form. It does this by measuring the heat change associated with the molecule's thermal denaturation when heated at a constant rate. Compositions were evaluated on SC samples according to the following procedure. Stratum corneum samples were equilibrated at 75% relative humidity (RH) overnight. Inventive and Comparative Compositions and control treatments applied on SC surface (0.1 g/sample) for 15 min in 75% RH. The SC surface was wiped clean and rinsed with DI water. Allow to dry in 75% RH overnight. The DSC profile was measured from 20° C. to 120° C. at 5° C./min.
As an initial step, each test composition was applied first to skin without rinsing, followed by application of a hydroxy-acid based peel composition in a moisturizer form.

Row | Compound | adverse effects in basic toxicological tests [1] | desquamation evidenced by stratum corneum disorganization, with increased amounts (stratum corneum)
1 | CC(c1ccccc1)c1ccc(O)cc1O (stereo not drawn) [Phenylethyl resorcinol, phenylethyl resorcinol] | has not shown adverse effects | 
2 | NC(N)=O [urea] |  | increased desquamation
3 | NC(=O)NCCO [hydroxyethyl urea] |  | increased desquamation
